What was measured:
Format in all cases: cell-based
[1] = tested on: RH7777 rat hepatoma cells; test: SRB cytotoxicity assay, RH7777 control cell line; conditions: SRB assay, 96 h exposure; control cell line
Protocol: (§1) For in vitro cytotoxicity screening, 1000 to 5000 cells were plated into each well of 96-well plates depending on growth rate, and exposed to different concentrations of a test compound for 96 h in three to five replicates. All the compounds were dissolved in dimethyl sulfoxide at 5 to 20 mM, and diluted to desired concentrations in complete culture medium. Cell numbers at the end of the drug treatment were measured by the SRB assay (Gududuru et al., “Synthesis and Biological Evaluation of Novel Cytotoxic Phospholipids for Prostate Cancer,” Bioorg. Med. Chem. Lett. 14:4919-4923 (2004); Rubinstein et al., “Comparison of in vitro Anticancer-Drug-Screening Data Generated with a Tetrazolium Assay Versus a Protein Assay Against a Diverse Panel of Human Tumor Cell Lines,” J. Natl. Cancer Inst. 82:1113-1118 (1990), each of which is hereby incorporated by reference in its entirety). Briefly, the cells were fixed with 10% of trichloroacetic acid, stained with 0.4% SRB, and the absorbances at 540 nm was measured using a plate reader (DYNEX Technologies, Chantilly, Va.). […] A sandwich ELISA (Roche, Mannheim, Germany) utilizing monoclonal antibodies specific for DNA and histones was used to quantify degree of apoptosis induced by the analogs after 72 h exposure. This assay measures DNA-histone complexes (mono- and oligonucleosomes) released into cytoplasm from the nucleus during apoptosis.

[2] = tested on: DU-145 human prostate cancer cells; test: SRB cytotoxicity assay, DU-145; conditions: read-out: IC50 DU-145, 96 h exposure, prostate cancer cell line
Protocol: as §1

[3] = tested on: PC-3 human prostate cancer cells; test: SRB cytotoxicity assay, PC-3; conditions: 96 h exposure, prostate cancer cell line
Protocol: as §1

[4] = tested on: LNCaP human prostate cancer cells; test: SRB cytotoxicity assay, LNCaP; conditions: 96 h exposure, prostate cancer cell line
Protocol: as §1

[5] = tested on: PPC-1 human prostate cancer cells; test: SRB cytotoxicity assay, PPC-1; conditions: 96 h exposure, prostate cancer cell line
Protocol: (§2) Dr. Mitchell Steiner at University of Tennessee Health Science Center, kindly provided PPC-1 and TSU-Pr1 cells.
as §1

[6] = tested on: TSU-Pr1 human prostate cancer cells; test: SRB cytotoxicity assay, TSU-Pr1; conditions: 96 h exposure, prostate cancer cell line
Protocol: as §2, §1

[7] = tested on: human breast cancer cell line (MCF-7); test: SRB cytotoxicity assay, MCF-7; conditions: SRB assay
Protocol: as §1
In vitro cytotoxicity assay was performed by the same sulforhodamine B (SRB) assay (described above). The compounds shown in Table 8 below where tested for activity against the breast cancer and ovarian cancer cell lines.
RH7777 and CV-1 cells were used as negative controls and MCF-7 cell line (breast cancer) was included to examine the selectivity.

[8] = tested on: CV-1 cells; test: SRB cytotoxicity assay, CV-1 control cell line
Protocol: For in vitro cytotoxicity screening, 1000 to 5000 cells were plated into each well of 96-well plates depending on growth rate, and exposed to different concentrations of a test compound for 96 h in three to five replicates. All the compounds were dissolved in dimethyl sulfoxide at 5 to 20 mM, and diluted to desired concentrations in complete culture medium. Cell numbers at the end of the drug treatment were measured by the SRB assay (Gududuru et al., “Synthesis and Biological Evaluation of Novel Cytotoxic Phospholipids for Prostate Cancer,” Bioorg. Med. Chem. Lett. 14:4919-4923 (2004); Rubinstein et al., “Comparison of in vitro Anticancer-Drug-Screening Data Generated with a Tetrazolium Assay Versus a Protein Assay Against a Diverse Panel of Human Tumor Cell Lines,” J. Natl. Cancer Inst. 82:1113-1118 (1990), each of which is hereby incorporated by reference in its entirety). Briefly, the cells were fixed with 10% of trichloroacetic acid, stained with 0.4% SRB, and the absorbances at 540 nm was measured using a plate reader (DYNEX Technologies, Chantilly, Va.). […] A sandwich ELISA (Roche, Mannheim, Germany) utilizing monoclonal antibodies specific for DNA and histones was used to quantify degree of apoptosis induced by the analogs after 72 h exposure. This assay measures DNA-histone complexes (mono- and oligonucleosomes) released into cytoplasm from the nucleus during apoptosis. RH7777 cells were employed because of nonspecific cytotoxicity of compound 4 in receptor-negative cells as well as receptor-positive prostate cancer cells.
RH7777 and CV-1 cells were used as negative controls and MCF-7 cell line (breast cancer) was included to examine the selectivity. 5-Fluorouracil was used as reference drug.

[9] = tested on: five human prostate cancer cell lines (DU-145, PC-3, LNCaP, PPC-1, and TSU-Pr1); test: SRB assay, statements on the panel of prostate cancer cell lines
Protocol: Cell numbers at the end of the drug treatment were measured by the SRB assay (Gududuru et al., “Synthesis and Biological Evaluation of Novel Cytotoxic Phospholipids for Prostate Cancer,” Bioorg. Med. Chem. Lett. 14:4919-4923 (2004); Rubinstein et al., “Comparison of in vitro Anticancer-Drug-Screening Data Generated with a Tetrazolium Assay Versus a Protein Assay Against a Diverse Panel of Human Tumor Cell Lines,” J. Natl. Cancer Inst. 82:1113-1118 (1990), each of which is hereby incorporated by reference in its entirety). Briefly, the cells were fixed with 10% of trichloroacetic acid, stained with 0.4% SRB, and the absorbances at 540 nm was measured using a plate reader (DYNEX Technologies, Chantilly, Va.). […] A sandwich ELISA (Roche, Mannheim, Germany) utilizing monoclonal antibodies specific for DNA and histones was used to quantify degree of apoptosis induced by the analogs after 72 h exposure. This assay measures DNA-histone complexes (mono- and oligonucleosomes) released into cytoplasm from the nucleus during apoptosis. […] EDG-ology of Liver Injury,” Biochimica et Biophysica ACT 1582:251-256 (2002), which is hereby incorporated by reference in its entirety) was also utilized to understand whether the antiproliferative activity of these derivatives is mediated through inhibition of LPL receptors.

Measured: IC50

COc1cc(C2NC(C(=O)NCCCCN)CS2)cc(OC)c1OC (mixture of isomers) [Compound 222]
> 100 µM: all assays above

COc1cc(C2NC(C(=O)NCCCNCCCCN)CS2)cc(OC)c1OC (mixture of isomers) [Compound 223]
> 100 µM: all assays above

NCCCCNC(=O)C(N)CO (stereo not drawn) [Compound 214]
> 100 µM: all assays above

NCCCCNCCCNC(=O)C(N)CO (stereo not drawn) [Compound 215]
> 100 µM: all assays above

NCCCCNC(=O)CN1C(=O)CSC1c1ccccc1 (stereo not drawn) [Compound 218]
> 100 µM: all assays above

NCCCCNCCCNC(=O)CN1C(=O)CSC1c1ccccc1 (stereo not drawn) [Compound 219]
> 100 µM: all assays above

From patent US7662842B2, “Thiazolidinone amides, thiazolidine carboxylic acid amides, and serine amides, including polyamine conjugates thereof, as selective anti-cancer agents” (Ohio State Univesity Research Foundation, priority 2003, dated 2010)
